According to patent US20020037327A1, “Treatment for cancer and compounds for use therein” (priority 1997, published 2002):
Like-named read-outs stand apart in the source and are kept apart here. One block for each substance: values may come before it.

How the values were obtained:
[1] = tested on: MCF-7 breast carcinoma cells; experiment: In vitro percent cell survival, crystal violet assay, breast carcinoma cells; assay type: cell-based, human; conditions: 48 hours
Method: (§1) Three compounds of the present invention, specifically, bismuth iodiscorbate, potassium iodiscorbate, and zinc iodiscorbate, were tested in vitro on both tumorous and normal human cells. Three cell lines were obtained through the American Type Culture Collection (Rockville, Maryland). The first cell line, designated HUV-EC-C, consisted of human umbilical cord vein normal endothelial cells. These noncancerous cells were used as a control. The second cell line, MCF-7, consisted of breast carcinoma cells. The third cell line, ME-180, consisted of uterine cervix carcinoma cells.
(§2) The data shown in FIGS. 5-7 were derived by the following steps. HUV-EC-C was cultured in a solution of 90% F12 medium (GIBCO-BRL, Grand Island, N.Y.) and 10% fetal bovine serum (Hyclone, Logan, Utah) with 100 μg/ml heparin and 30 μg/ml ECGF (endothelial cell growth factor; Sigma Chemical Co., St. Louis, Mo.). MCF-7 and ME-180 were grown in a solution of 90% minimal essential medium (GIBCO-BRL) and 10% fetal bovine serum (Hyclone). The cells were grown to approximately 90% confluence in T25 cell culture flasks (Falcon-Becton Dickinson Labware, Franklin Lakes, N.J.) in a 37° C. humidified incubator in the presence of 5% C02−95% air.
(§3) Flasks were removed from the incubator and placed in a sterile laminar flow hood. All cell manipulation procedures were performed in this sterile hood. The flasks were rinsed in 5 ml of sterile phosphate-buffered saline (PBS; Sigma) and the monolayer of cells was released from the flask by adding 5 ml of 1X trypsin-EDTA (Sigma) in PBS. The flask was capped and placed back in the incubator for 10 minutes. The flasks were removed from the incubator, and cells plus trypsin-EDTA solution were transferred to a 15 ml centrifuge tube (Falcon) and 5 ml of cell growth medium was added. The tubes were centrifuged at 500 g for 10 minutes at room temperature. The tubes then were placed back in the hood and supernatant (top liquid) was removed with a sterile pipette (Falcon). […] The cell density in the hemacytometer was determined by counting cells visible by microscopy. […]

[2] = Water solubility of the prepared compound; assay type: physicochemical
Method: Bismuth iodiscorbate was prepared by dissolving 58 g of concentrated hydriodic acid (56.1 weight-percent) into 350 mls of water. Next, 5 g of 0.0085 molar bismuth (III) iodide was crushed in a mortar, and then dissolved in the solution. Next, 2.3 g of 0.0085 molar strontium hydroxide octahydrate was stirred into the solution, followed by the addition of 4.5 g of 0.026 molar L-ascorbic acid. The mixture was stirred for three hours, then stripped to dryness on a rotary evaporator. The residue then was redissolved in 500 ml water and filtered, and again stripped on a rotary evaporator. This process assisted in the removal of excess hydriodic acid. The residue again was dissolved in 500 ml of water, filtered, and stripped to dryness on a rotary evaporator. An orange solid then was removed from the flask and bottled. This procedure yielded 9.1 g of what is designated as SrBiI2[ascorbate]3. This compound was water soluble.
Potassium iodiscorbate was prepared by adding 6.5 g of 0.12 molar potassium hydroxide and 16.0 g of 0.06 molar strontium hydroxide octahydrate to 500 ml water in a 1000-ml beaker, resulting in a white, cloudy solution. The mixture was stirred for about 2 hours. Next, 13.0 g of 0.06 molar hydriodic acid (56 weight-percent) was added, and the mixture was stirred for three hours. Next, […] of 0.18 molar L-ascorbic acid was added, turning the mixture clear in about 5 minutes. The mixture then was stirred for another 0.5 hour. The water was removed under vacuo, and the residue dried under vacuum for about 8 hours. The solids were removed from the flask and bottles. The structure is designated as [ascorbate]2SrK[ascorbate]KI. This compound also was water soluble.
Zinc iodiscorbate was prepared by adding 4.0 g of 0.05 molar zinc oxide and 13.3 g of 0.05 molar strontium hydroxide octahydrate to 500 ml of distilled water, resulting in a white suspension. The mixture then was treated with 11.2 g of 0.05 molar concentrated hydriodic acid and stirred for two hours. A white suspension still remained. […]

[3] = tested on: ME-180 uterine cervix carcinoma cells; experiment: In vitro percent cell survival, crystal violet assay, uterine cervix carcinoma cells; assay type: cell-based, human; conditions: 48 hours; for survival of human cervical carcinoma cells (ME-180): concentration not given
Method: as §1, §2, §3

[4] = tested on: cells at high density (near confluence in culture dishes); experiment: Treatment of cells at high density (near confluence); assay type: cell-based, human; conditions: 400 μg/ml
From the text: FIG. 5 depicts percent cell survival against various concentrations of potassium iodiscorbate.

[5] = tested on: HUV-EC-C human umbilical cord vein normal endothelial cells; experiment: In vitro percent cell survival, crystal violet assay, normal endothelial cells (control); assay type: cell-based; conditions: 48 hours
Method: as §1, §2
Flasks were removed from the incubator and placed in a sterile laminar flow hood. […] The cell density in the hemacytometer was determined by counting cells visible by microscopy. […]

mice = experiment: In vivo toxicology study in mice
Method: A toxicology study also was performed. Specifically, the toxicology of potassium iodiscorbate was evaluated through in vivo tests on mice. Potassium iodiscorbate was prepared as a stock solution of 175 mg/ml in saline and administered to mice. Injections consisted of a volume not exceeding 0.1 ml administered through the tail vein (intravenously), or a volume not exceeding 0.2 ml (by an intraperitoneal route). Doses up to 1000 mg/kg (intraperitoneal injection) and 500 mg/kg (intravenous injection) caused no apparent toxicity. This dose should permit use of the compounds of the present invention in concentrations (refer to FIGS. 5-7) that approximate those necessary for selective inhibition of malignant cell growth.

solubility in water [2]: water soluble
Substance: Bismuth iodiscorbate
survival of human breast cancer cells (MCF-7) ([1]; concentration not given): effective in reducing the survival
survival of human cervical carcinoma cells (ME-180) [3]: effective in reducing the survival

Substance: Potassium iodiscorbate
survival of breast carcinoma cells (MCF-7) ([1]; concentrations greater than 100 μg/ml): reducing dramatically the survival
solubility in water ([2]; product as prepared): water soluble
effect on cells at high density [4]: little effect
growth of normal human endothelial cells (HUV-EC-C) ([5]; any concentration tested): did not affect the growth
survival of human cervical carcinoma cells (ME-180) [3]: reduced dramatically the survival
doses that caused no apparent toxicity (mice; intraperitoneal injection): up to 1000 mg/kg
doses that caused no apparent toxicity (mice; intravenous injection (tail vein)): ≤ 500 mg/kg

Substance: Zinc iodiscorbate
survival of breast carcinoma cells (MCF-7) with respect to normal cell growth ([1]; about 80-100 μg/ml): reduced dramatically
solubility in water ([2]; product as prepared): water soluble
normal cell growth (HUV-EC-C) ([5]; about 80-100 μg/ml): without serious reduction of normal cell growth
survival of cervical carcinoma cells (ME-180) with respect to normal cell growth ([3]; about 80-100 μg/ml): reduced dramatically
